Laboratory results taken from ChEMBL document CHEMBL1152064, “Nucleosides and nucleotides. 128. (2S)-2-deoxy-2-C-methyl-5-iodouridine (SMIU) as a novel potent anti-herpes virus agent” (Bioorg Med Chem Lett, 1994).
≈ marks a conversion by molar mass, not a printed value.

Key:
[1] = tested on: NC-37; assay: Concentration required to reduce HSV-1 (KOS strain) induced cytopathogenicity in NC-37 cells; type: functional, cell-based; details: Homo sapiens
[2] = tested on: NC-37; assay: Cytotoxic concentration required to inhibit NC-37 cells by 50%; type: functional; details: Homo sapiens

Structure (SMILES)	EC50 [1]	CC50 [2]
C[C@H]1[C@H](O)[C@@H](CO)O[C@H]1n1cc(Cl)c(=O)[nH]c1=O	> 100 µg/mL	> 100 µg/mL
C[C@H]1[C@H](O)[C@@H](CO)O[C@H]1n1cc(F)c(=O)[nH]c1=O	> 100 µg/mL	> 100 µg/mL
C[C@H]1[C@H](O)[C@@H](CO)O[C@H]1n1cc(Br)c(=O)[nH]c1=O	11 µg/mL (≈ 34.3 µM)	> 100 µg/mL
Nc1nc2c(ncn2COCCO)c(=O)[nH]1 [ACYCLOVIR]	0.17 µg/mL (≈ 0.755 µM)	> 100 µg/mL
O=c1[nH]c(=O)n([C@H]2C[C@H](O)[C@@H](CO)O2)cc1I [IDOXURIDINE]	> 80 µg/mL	80 µg/mL (≈ 226 µM)

The next lines start with results.

EC50 [1]	Structure (SMILES)	CC50 [2]
> 100 µg/mL	C[C@H]1[C@H](O)[C@@H](CO)O[C@H]1n1cc(Cl)c(N)nc1=O	> 100 µg/mL
4.8 µg/mL (≈ 13.1 µM)	C[C@H]1[C@H](O)[C@@H](CO)O[C@H]1n1cc(I)c(N)nc1=O	> 100 µg/mL
> 100 µg/mL	C[C@H]1[C@H](O)[C@@H](CO)O[C@H]1n1cc(Br)c(N)nc1=O	> 100 µg/mL
0.22 µg/mL (≈ 0.849 µM)	C[C@H]1[C@H](O)[C@@H](CO)O[C@H]1n1cc(F)c(N)nc1=O	0.22 µg/mL (≈ 0.849 µM)
0.14 µg/mL (≈ 0.38 µM)	C[C@H]1[C@H](O)[C@@H](CO)O[C@H]1n1cc(I)c(=O)[nH]c1=O	> 100 µg/mL
0.06 µg/mL (≈ 0.161 µM)	O=c1[nH]c(=O)n([C@@H]2O[C@H](CO)[C@@H](O)[C@@H]2F)cc1I [FIALURIDINE]	6.7 µg/mL (≈ 18 µM)
0.1 µg/mL (≈ 0.269 µM)	Nc1nc(=O)n([C@@H]2O[C@H](CO)[C@@H](O)[C@@H]2F)cc1I [FIACITABINE]	63 µg/mL (≈ 170 µM)
